The source of these data is patent US20100330081A1, “CRIPTO BINDING MOLECULES” (priority 2007, published 2010).

In the experiment the test system is CT-3 xenograft tumors (primary human colon tumor). Nature of the experiment: CT-3 human colon tumor xenograft, combination with 5-fluorouracil (Example 2). In kind it is in vivo, mice. The settings on record: 5-fluorouracil alone, single dose 30 mg/kg/inj IV Day 15; study terminated Day 34. The source says:
Two hundred eighteen (218) female SCID beige (C.B.-17/IcrHsd-Prkcd Lyst Skid Beige) mice (Harlan Sprague Dawley, Madison, Wis.) were started on the study at six to seven weeks of age. Animals were acclimated to the laboratory for at least two days prior to implantation of the tumor. Housing was in ventilated cage racks, and food and water were allowed ad libitum.
CT-3 tumor fragments from a primary human colon tumor were originally obtained from Sera Care, Inc (Oceanside, Calif.) (sent by Peter Chu, Biogen Idec, San Diego). A serially transplanted in-vivo xenograft line was established at Biogen Idec, Inc. and fragments from the third xenograft generation were cryopreserved. […]
On Day −1, the mice were implanted with BioMedics animal ID chips (Model IMI-1000; Seaford, Del.) SC on the left flank. […] Tumor size and body weight measurements were recorded at least twice weekly beginning on […]. When the tumors measured a minimum of 100 mg (Day 15), mice were randomized to treatment and control groups (see Table 2) based on tumor size and excluding tumors with non-progressive growth. […]
Tumor measurements were determined using digital calipers. Body weights and tumor size measurements were recorded on Day 6 and were continued twice weekly until the termination of the study. […]
A general note: Xenograft models place foreign cells or tissue in a host animal.

`O=c1[nH]cc(F)c(=O)[nH]1` [5-fluorouracil]: the “inhibition of tumor growth (change in tumor weight)” value is “significantly inhibited tumor growth throughout the study”.
